Our source for the GI50 and TGI values is PubChem BioAssay (NCI).

Several values for one entry are separate records, joined by “and”; a condition that tells them apart may be missing. Identical values can stand only once.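 How tested: cells in 96-well plates exposed to compound for 48 hours at five concentrations. GI50 marks 50% less growth. TGI is the concentration that stops growth completely.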 A value given as a limit tells only on which side of the number the result lay.

Test in all cases: growth of human tumour cells (NCI), 48 h
Assay [1] has as its system SW-620 colon.
For assay [2], the system named is OVCAR-4 ovarian.
In assay [3] the test system is MCF7 breast.
In assay [4] the test system is SK-MEL-2 melanoma.
Assay [5] has as its system A549 NSCLC.
In assay [6] the test system is SF-539 CNS.
The subject of assay [7] is SNB-19 CNS.
For assay [8], the system named is UACC-62 melanoma.
The subject of assay [9] is SK-MEL-28 melanoma.
Assay [10] concerns U251 CNS.

`O=C1NC(=NCc2cccs2)O/C1=C\c1ccc2ncccc2c1`: the GI50 in assay [1] is 4.74 µM; in assay [2], 4.5 µM; in [3], 5.02 µM; in [4], 4.2 µM; in assay [5], 4.46 µM; in assay [6] it was 2.87 µM. Besides, the GI50 in assay [7] was 7.04 µM; in [8], 4.42 µM; in [9], 5.87 µM; in [10], 5.07 µM. Further, the TGI was 15.7 µM in [1]; above 20.3 µM in [2]; 23.7 µM in assay [3]; 9.82 µM in assay [4]; 12.5 µM in assay [5]; 8.59 µM in [6]. Also, the TGI in assay [7] was above 25 µM; in assay [8] it was 11.5 µM; in assay [9] it was 18 µM; in assay [10], above 18.8 µM.

Take `Nc1cc(C(F)(F)F)c(-c2nc(N3CCOCC3)nc(N3CCOCC3)n2)cn1`: the GI50 in assay [1] was 0.921 µM; in assay [2], 0.667 µM; in assay [3], 0.113 µM; in [4], 0.618 µM; in assay [5], 0.416 µM; in assay [6], 0.539 µM. Besides, the GI50 in [7] is 2.11 µM; in assay [8], 0.202 µM; in assay [9], 0.248 µM; in assay [10], 1.22 µM. In addition, the TGI was above 100 µM in assay [1]; above 31.1 µM in assay [2]; 19 µM in assay [3]; 8.68 µM in assay [4]; 8.62 µM in assay [5]; 3.54 µM in assay [6]. Moreover, the TGI was determined as 44.5 µM in assay [7], 1.38 µM in assay [8], 3.71 µM in [9] and 44.2 µM in [10].

In the case of `CC(=O)O[C@H]([C@H](OC(C)=O)[C@H](C)OC(C)=O)[C@@H](/C=C/[C@H]1CC=CC(=O)O1)OC(C)=O`, the GI50 is 37.6 µM in assay [1]; 34.7 µM in assay [2]; 39 µM in assay [3]; 36.4 µM in assay [4]; above 100 µM in assay [5]; 37.2 µM in assay [6]. Besides, the GI50 in [7] was 80.5 µM; in assay [8] it was above 100 µM; in [9], 39.2 µM; in [10], above 100 µM. The TGI in [1], in assay [2], in assay [3], in assay [4], in [5] and in assay [6] was above 100 µM in each case. Also, the TGI in [7], in [8], in assay [9] and in [10] was above 100 µM each time.

In the case of `COc1ccc([C@@H]2[C@@H](Oc3ccccc3)C(=O)N2c2cc(OC)c(OC)c(OC)c2)cc1F`, the GI50 is 0.0769 µM in assay [1]; 2.57 µM in assay [2]; 0.0409 µM in [3]; 0.447 µM in assay [4]; 0.209 µM in assay [5]; 0.0735 µM in assay [6]. For the same molecule, the GI50 is 0.175 µM in assay [7], 0.0419 µM in assay [8], 0.26 µM in assay [9] and 0.185 µM in assay [10]. In addition, the TGI is above 100 µM in [1]; above 100 µM in assay [2]; above 100 µM in assay [3]; above 100 µM in [4]; above 100 µM in [5]; 0.709 µM in assay [6]. Besides, the TGI in assay [7], in assay [8], in [9] and in assay [10] was above 100 µM each time.

Consider `CC1(C)CC2=NO[Se]3=C2C(=NO3)C1`, for which the TGI in assay [1] was 12.3 µM; in assay [2] it was 21.7 µM; in assay [3] it was 14.2 µM; in assay [4], 24.8 µM; in [5], 14.2 µM; in assay [6], 5.75 µM. Also, the TGI in assay [7] is 15.3 µM; in assay [8], 6.63 µM; in assay [9], 16.6 µM; in assay [10], 18.7 µM.

Regarding `CN(C)CCCC1(c2ccc(F)cc2)OCc2cc(-c3csc4ccccc34)ccc21` (stereo not given), the GI50 in [1] is 1.63 µM; in assay [2], 1.68 µM; in [3] it was 1.67 µM; in assay [4], 1.83 µM; in assay [5], 1.82 µM; in [6] it was 1.71 µM. Moreover, the GI50 in assay [7] was 1.6 µM; in [8], 1.69 µM; in [9], 1.68 µM; in [10] it was 1.69 µM. In addition, the TGI in assay [1] stood at 3.22 µM; in [2], 3.28 µM; in [3], 3.27 µM; in assay [4], 3.58 µM; in assay [5] it was 3.66 µM; in assay [6], 3.08 µM. Moreover, the TGI in assay [7] turned out to be 3.04 µM; in assay [8], 3.13 µM; in assay [9], 3.07 µM; in [10], 3.39 µM.

Take `Cc1cccc(Oc2ccc(Nc3ncnc4ccc(NC(=O)CN(C)C)cc34)cc2Cl)c1`: the GI50 is 1.64 µM in assay [1]; 1.7 µM in assay [2]; 1.69 µM in assay [3]; 1.84 µM in assay [4]; 1.91 µM in [5]; 1.82 µM in assay [6]. In addition, the GI50 was 2.11 µM in assay [7], 1.71 µM in assay [8], 1.85 µM in assay [9] and 1.68 µM in [10]. Besides, the TGI in [1] was 3.05 µM; in assay [2], 5.59 µM; in [3], 3.87 µM; in [4], 3.63 µM; in [5] it was 10.1 µM; in assay [6], 3.42 µM. Further, the TGI in assay [7] stood at 6.35 µM; in assay [8] it was 3.38 µM; in assay [9], 3.48 µM; in assay [10], 3.29 µM.

For the molecule `N=C(N)SCc1ccc(Cl)c2ccccc12` (tested in a mixture with another compound), the TGI in assay [1] is 28.5 µM and 27.6 µM; in assay [2], 15.9 µM and 24.9 µM; in assay [3] it was 24.7 µM and 27.9 µM; in [4], 21.7 µM and 25.1 µM; in assay [5] it was 31.3 µM and 35.5 µM; in assay [6], 23.1 µM and 20.4 µM. The TGI in [7] is 28.4 µM and 31.6 µM; in assay [8] it was 26.4 µM and 25.6 µM; in assay [9], 28.1 µM and 25.6 µM; in assay [10], 25.7 µM and 23.6 µM.
